Read-outs that look alike come from different tables or passages of the source. Positions of bridges follow the written chain, without caps; N, C: chain ends. Non-standard residues stand in square brackets, D forms with d. Residues, ends and D or L forms follow the SMILES beside them. dPhe(4-NH2) = Nc1ccc(C[C@@H](N)C(=O)O)cc1; Phe(4-Br) = N[C@@H](Cc1ccc(Br)cc1)C(=O)O; dPhe(4-Br) = N[C@H](Cc1ccc(Br)cc1)C(=O)O; dPhe(4-I) = N[C@H](Cc1ccc(I)cc1)C(=O)O; d(hPhe) = N[C@H](CCc1ccccc1)C(=O)O; NMeR = CN[C@@H](CCCNC(=N)N)C(=O)O; Nle = CCCC[C@H](N)C(=O)O
Key:
[1] = target: T1, human MC3R (Homo sapiens, UniProt P41968); assay: split-luciferase cAMP sensor assay, agonist mode (measurement window 1), hMC3R; format: cell-based; conditions: for Emax: read-out: MC3R cAMP % max activation
T1 construct: expressed in transfected cells; host or cells: HEK-293 cells stably expressing the GScAMP22F split-luciferase cAMP sensor (parent reporter line from Promega); MC3R clone generated in-house, G418 selection
T1 sequence (P41968 whole entry): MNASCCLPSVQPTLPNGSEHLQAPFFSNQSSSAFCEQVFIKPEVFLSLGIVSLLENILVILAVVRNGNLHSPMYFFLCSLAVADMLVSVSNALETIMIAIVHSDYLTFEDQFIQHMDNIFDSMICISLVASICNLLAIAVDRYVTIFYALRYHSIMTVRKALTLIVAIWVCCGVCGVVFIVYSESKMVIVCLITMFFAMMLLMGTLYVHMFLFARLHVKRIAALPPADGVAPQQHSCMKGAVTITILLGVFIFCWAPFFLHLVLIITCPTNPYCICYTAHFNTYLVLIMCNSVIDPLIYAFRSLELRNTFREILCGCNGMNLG
Protocol: (§1) The stable cell lines were grown and maintained in selection media consisting of Dulbecco's modified Eagle media (DMEM) with 4.5 g/l D-glucose, and 4 mM L-glutamine (Thermo Fisher Scientific, Waltham, MA), supplemented with 10% fetal bovine serum, 100 units/ml penicillin, 100 μg/ml streptomycin, 2.5 μg/ml amphotericin B, 200 μg/ml hygromycin B (for positive selection of the GScAMP22f luciferase reporter), and Geneticin™ (G418) 700 μg/ml (for MC3R or MC4R selection). Actual serum concentration during the assay is estimated to be about 1%. Cell line identity is routinely verified by qPCR and MC3R-and MC4R-specific oligonucleotides.
(§2) The assay for the determination of the cAMP response in live cells was described previously. […] Cells were seeded at a density of 20,000 cells per well using 384-well poly-D lysine-coated, clear bottom, and black-wall assay plates (Corning Inc. Corning, NJ). Cells were allowed to attach to the plates for 18 to 24 h after which growth media was removed and 20 μl of 4% D-luciferin (Promega) in CO2 independent, serum-free medium (Thermo Fisher Scientific) was added to each well. […] Intracellular cAMP levels were measured using an FDSS 7000EX Functional Drug Screening System (Hamamatsu Photonics, Hamamatsu, Japan) in the Center for Chemical Genomics at the Life Sciences Institute. This instrument allowed the in-line addition of test-peptides and receptor agonists while simultaneously acquiring the luminescence signal from live cells. […] A submaximal forskolin (20 μM) concentration was also included to serve as a normalization reference to account for cell number variations and differences in assay transducer efficiency between cell lines.
(§3) With this set up it was possible to evaluate the direct effect of the test-peptides on the MC3R and MC4R cell lines during measurement window 1, while the antagonist profile in the presence of EC90 α-MSH was determined on measurement window 2. […] EC50 or IC50 potency values were determined by non-linear regression by fitting the data to a sigmoid four-parameter variable slope model using the GraphPad Prism version 8.4 software package (San Diego CA).

[2] = target: T2, human MC4R (Homo sapiens, UniProt P32245); assay: split-luciferase cAMP sensor assay, agonist mode (measurement window 1), hMC4R; format: cell-based; conditions: for Emax: read-out: MC4R cAMP % max activation
T2 construct: host or cells: HEK-293 cells stably expressing the GScAMP22F split-luciferase cAMP sensor and hMC4R, G418 selection
T2 sequence (P32245 whole entry): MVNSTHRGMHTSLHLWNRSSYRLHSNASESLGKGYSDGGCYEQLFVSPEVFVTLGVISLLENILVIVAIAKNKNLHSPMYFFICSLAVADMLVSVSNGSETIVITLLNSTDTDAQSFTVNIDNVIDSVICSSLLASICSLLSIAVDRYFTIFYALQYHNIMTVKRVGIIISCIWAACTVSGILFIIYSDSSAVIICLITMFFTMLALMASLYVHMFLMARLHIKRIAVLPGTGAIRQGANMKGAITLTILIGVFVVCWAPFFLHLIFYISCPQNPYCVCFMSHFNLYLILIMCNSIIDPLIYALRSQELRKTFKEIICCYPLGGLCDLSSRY
Protocol: as §1, §2, §3

[3] = agonist mode, hMC3R stable cell line
[4] = agonist mode, hMC4R stable cell line
[5] = agonist mode, hMC4R stable cell line, read-out: MC4R cAMP EC50
[6] = % maximal activation, agonist mode
[7] = agonist mode, hMC3R stable cell line, read-out: MC3R cAMP EC50
[8] = agonist mode, hMC4R stable cell line, unit inferred, read-out: MC4R cAMP EC50

CCCC[C@H](NC(=O)[C@H](CCCNC(=N)N)NC(C)=O)C(=O)N[C@H]1CSSC[C@@H](C(N)=O)NC(=O)[C@@H](Cc2c[nH]c3ccccc23)NC(=O)[C@H](CCCNC(=N)N)NC(=O)[C@@H](Cc2ccc(Br)cc2)NC(=O)[C@H](Cc2c[nH]cn2)NC1=O [CTX-1231, Arg-Nle-cyclo(Cys-His-D-Phe(4-Br)-Arg-D-Trp-Cys)] (Ac-R[Nle]CH[dPhe(4-Br)]R[dW]C-NH2; disulfide 3-8 (inferred))
Emax [1, 3]: 59% | MC4R selectivity vs MC1R [2]: 0.19 | MC4R selectivity vs MC3R [2]: 3.04 | Emax [2, 4]: 64% | EC50 [2, 5]: 2.3 nM

CC(=O)N[C@H]1CSSC[C@@H](C(N)=O)NC(=O)[C@H](Cc2c[nH]c3ccccc23)NC(=O)[C@H](CCCNC(=N)N)NC(=O)[C@@H](Cc2ccccc2)NC(=O)[C@H](Cc2c[nH]cn2)NC(=O)[C@@H](C)NC1=O [CTX-1207, cyclo(Cys-D-Ala-His-D-Phe-Arg-Trp-Cys)]
Emax [1, 6]: 89% | EC50 ([1]; MC3R cAMP EC50, HEK-293 cells stably expressing hMC3R, agonist mode): 8.1 nM | MC4R selectivity vs MC3R ([1]; MC4R versus MC3R): 8.87 | Emax [2, 6]: 96% | EC50 ([2]; MC4R cAMP EC50, HEK-293 cells stably expressing hMC4R, agonist mode): 0.91 nM

CC(=O)N[C@@H](CCCNC(=N)N)C(=O)N[C@H]1CSSC[C@@H](C(N)=O)NC(=O)[C@H](Cc2c[nH]c3ccccc23)NC(=O)[C@H](CCCNC(=N)N)NC(=O)[C@@H](Cc2ccc(Br)cc2)NC(=O)[C@H](Cc2c[nH]cn2)NC(=O)[C@@H](C)NC1=O [CTX-2206, Arg-cyclo(Cys-D-Ala-His-D-Phe(4-Br)-Arg-Trp-Cys)]
Emax [1, 3]: 28% | EC50 [1, 7]: 22 nM | MC4R selectivity vs MC3R [2]: 7.35 | Emax [2, 4]: 98% | EC50 [2, 8]: 3 nM

CC(=O)N[C@@H](CCCNC(=N)N)C(=O)N[C@H]1CSSC[C@@H](C(=O)N[C@@H](CCCNC(=N)N)C(=O)N[C@@H](Cc2ccccc2)C(=O)NCC(=O)O)NC(=O)[C@@H](Cc2c[nH]c3ccccc23)NC(=O)[C@H](CCCNC(=N)N)NC(=O)[C@@H](Cc2ccc(Br)cc2)NC(=O)[C@H](CCCNC(=N)N)NC(=O)[C@@H](C)NC1=O [CTX-1219] (Ac-RC[dA]R[dPhe(4-Br)]R[dW]CRFG-OH; disulfide 2-8 (inferred))
Emax [1, 3]: 20% | EC50 [1, 7]: 4.5 nM | MC4R selectivity vs MC1R [2]: 1 | MC4R selectivity vs MC3R [2]: 1.99 | Emax [2, 4]: 76% | EC50 [2, 5]: 2.3 nM

CC(=O)N[C@@H](CCCNC(=N)N)C(=O)N[C@H]1CSSC[C@@H](C(=O)N[C@@H](CCCCN)C(=O)N2CCC[C@H]2C(N)=O)NC(=O)[C@@H](Cc2c[nH]c3ccccc23)NC(=O)[C@H](CCCNC(=N)N)NC(=O)[C@@H](Cc2ccc(Br)cc2)NC(=O)[C@H](CCCNC(=N)N)NC(=O)[C@@H](C)NC1=O [CTX-1217, Arg-cyclo(Cys-D-Ala-Arg-D-Phe(4-Br)-Arg-D-Trp-Cys)-Lys-Pro] (Ac-RC[dA]R[dPhe(4-Br)]R[dW]CKP-NH2; disulfide 2-8)
Emax [1, 3]: 13% | EC50 [1, 7]: 4 nM | MC4R selectivity vs MC1R [2]: 1.12 | MC4R selectivity vs MC3R [2]: 2.73 | Emax [2, 4]: 69%

CC(=O)N[C@@H](CCCNC(=N)N)C(=O)N[C@H]1CSSC[C@@H](C(N)=O)NC(=O)[C@@H](Cc2c[nH]c3ccccc23)NC(=O)[C@H](CCCNC(=N)N)NC(=O)[C@@H](Cc2c[nH]c3ccccc23)NC(=O)[C@H](CCCNC(=N)N)NC(=O)[C@@H](C)NC1=O [CTX-1244, Arg-cyclo(Cys-D-Ala-Arg-D-Trp-Arg-D-Trp-Cys)] (Ac-RC[dA]R[dW]R[dW]C-NH2; disulfide 2-8 (inferred))
MC3R cAMP % max activation [1, 3]: (10%) | EC50 [1, 7]: 13 nM | MC4R selectivity vs MC1R [2]: 0.26 | MC4R selectivity vs MC3R [2]: 0.11 | MC4R cAMP % max activation [2, 4]: (42%) | EC50 [2, 5]: 109 nM

CCCC[C@H](NC(=O)[C@H](CCCNC(=N)N)NC(C)=O)C(=O)N[C@H]1CSSC[C@@H](C(N)=O)NC(=O)[C@H](Cc2ccccc2)NC(=O)[C@H](CCCNC(=N)N)NC(=O)[C@@H](Cc2ccc(Br)cc2)NC(=O)[C@H](CCCNC(=N)N)NC1=O [CTX-1623, Arg-Nle-cyclo(Cys-Arg-D-Phe(4-Br)-Arg-Phe-Cys)] (Ac-R[Nle]CR[dPhe(4-Br)]RFC-NH2; disulfide 3-8)
Emax [1, 6]: 62% | Emax [2, 6]: 73%

CC(=O)Nc1ccc(C[C@H]2NC(=O)[C@H](CCCNC(=N)N)NC(=O)[C@@H](C)NC(=O)[C@@H](NC(=O)[C@H](CCCNC(=N)N)NC(C)=O)CSSC[C@@H](C(N)=O)NC(=O)[C@@H](Cc3c[nH]c4ccccc34)NC(=O)[C@H](CCCNC(=N)N)NC2=O)cc1 [CTX-1245, Arg-cyclo(Cys-D-Ala-Arg-D-Phe(4-NH-Ac)-Arg-D-Trp-Cys)] (Ac-RC[dA]R[dPhe(4-NH2)](Ac)R[dW]C-NH2; disulfide 2-8)
Emax [1, 3]: 6.3% | Emax [2, 4]: 34%

CCCC[C@H](NC(=O)[C@H](CCCNC(=N)N)NC(C)=O)C(=O)N[C@H]1CSSC[C@@H](C(N)=O)NC(=O)[C@@H](Cc2c[nH]c3ccccc23)NC(=O)[C@H](CCCNC(=N)N)NC(=O)[C@@H](Cc2ccc(I)cc2)NC(=O)[C@H](Cc2c[nH]cn2)NC1=O [CTX-1233, Arg-Nle-cyclo(Cys-His-D-Phe(4-I)-Arg-D-Trp-Cys)] (Ac-R[Nle]CH[dPhe(4-I)]R[dW]C-NH2; disulfide 3-8 (inferred))
Emax [1, 3]: 22% | EC50 [1, 7]: 4.1 nM | MC4R selectivity vs MC1R [2]: 0.26 | MC4R selectivity vs MC3R [2]: 1.88 | Emax [2, 4]: 16% | EC50 [2, 5]: 2.2 nM

CC(=O)N[C@@H](CCCNC(=N)N)C(=O)N[C@H]1CSSC[C@@H](C(=O)N[C@@H](CCCCN)C(N)=O)NC(=O)[C@@H](Cc2c[nH]c3ccccc23)NC(=O)[C@H](CCCNC(=N)N)NC(=O)[C@@H](Cc2ccc(Br)cc2)NC(=O)[C@H](CCCNC(=N)N)NC(=O)[C@@H](C)NC1=O [CTX-1218, Arg-cyclo(Cys-D-Ala-Arg-D-Phe(4-Br)-Arg-D-Trp-Cys)-Lys] (Ac-RC[dA]R[dPhe(4-Br)]R[dW]CK-NH2; disulfide 2-8)
Emax [1, 3]: 16% | EC50 ([1]; agonist mode, hMC3R stable cell line, unit inferred, read-out: MC3R cAMP EC50): 4 nM | MC4R selectivity vs MC1R [2]: 1 | MC4R selectivity vs MC3R [2]: 1.85 | Emax [2, 4]: 77% | EC50 [2, 8]: 2.2 nM

CC(=O)N[C@@H](CCCNC(=N)N)C(=O)N[C@H]1CSSC[C@@H](C(N)=O)NC(=O)[C@@H](Cc2c[nH]c3ccccc23)NC(=O)[C@H](CCCNC(=N)N)NC(=O)[C@@H](Cc2ccc(Br)cc2)NC(=O)[C@H](CCCNC(=N)N)N(C)C(=O)[C@@H](C)NC1=O [CTX-1248, Arg-cyclo(Cys-D-Ala-NMe-Arg-D-Phe(4-Br)-Arg-D-Trp-Cys)] (Ac-RC[dA][NMeR][dPhe(4-Br)]R[dW]C-NH2; disulfide 2-8 (inferred))
Emax [1, 3]: 18% | EC50 [1, 7]: 2.8 nM | MC4R selectivity vs MC1R [2]: 1.31 | MC4R selectivity vs MC3R [2]: 1.36 | Emax [2, 4]: 47% | EC50 [2, 5]: 2 nM

CC(=O)N[C@@H](CCCNC(=N)N)C(=O)N[C@H]1CSSC[C@@H](C(N)=O)NC(=O)[C@H](Cc2c[nH]c3ccccc23)NC(=O)[C@H](CCCNC(=N)N)NC(=O)[C@H](Cc2ccc(Br)cc2)NC(=O)[C@H](CCCNC(=N)N)NC(=O)[C@@H](C)NC1=O [CTX-1212] (Ac-RC[dA]R[Phe(4-Br)]RWC-NH2; disulfide 2-8)
Emax [1, 3]: 0.1% | EC50 [1, 7]: 28 nM | MC4R selectivity vs MC1R [2]: 0.07 | MC4R selectivity vs MC3R [2]: 0.07 | Emax [2, 4]: 55%

CC(=O)N[C@@H](CCCNC(=N)N)C(=O)N[C@H]1CSSC[C@@H](C(N)=O)NC(=O)[C@@H](Cc2c[nH]c3ccccc23)NC(=O)[C@H](CCCNC(=N)N)NC(=O)[C@@H](CCc2ccccc2)NC(=O)[C@H](CCCNC(=N)N)NC(=O)[C@@H](C)NC1=O [CTX-1277, Arg-cyclo(Cys-D-Ala-Arg-D-Hph-Arg-D-Trp-Cys)] (Ac-RC[dA]R[d(hPhe)]R[dW]C-NH2; disulfide 2-8 (inferred))
Emax [1, 3]: 5.2% | MC4R selectivity vs MC1R [2]: 0.05 | MC4R selectivity vs MC3R [2]: 0.1 | Emax [2, 4]: 29%

From US20240391954A1, “MC4R AGONIST PEPTIDES” (The Regents of the University of Michigan, priority 2021, published 2024)
